Reference: US20040063738A1, “Substituted heterocyclic phthalic acid diamide arthropodicides” (priority 2003, published 2004)

SMILES: CC(C)NC(=O)c1c(I)cccc1C(=O)Nc1ccc(OCC(F)(F)F)nc1 [Compound 1, 3-iodo-N^2-(1-methylethyl)-N^1-[6-(2,2,2-trifluoroethoxy)-3-pyridinyl]-1,2-benzenedicarboxamide]
- melting point: 220 to 225 °C
